# Data published in the kinase profiling compilation of Christmann-Franck et al. (2016).
# Assays:
# Assay in all cases: KINOMEscan competition binding
# Conditions in all cases: compound 10.0 µM
# ACVR1B (human) = ACVR1B (human) (UniProt P36896)
# BMPR2 (human) = BMPR2 (human) (UniProt Q13873)
# [1] = system: BMX (human), P51813 [V600E]
# BRSK1 (human) = BRSK1 (human) (UniProt Q8TDC3)
# CAMKK1 (human) = CAMKK1 (human) (UniProt Q8N5S9)
# CAMKK2 (human) = CAMKK2 (human) (UniProt Q96RR4)
# DAPK3 (human) = DAPK3 (human) (UniProt O43293)
# DDR2 (human) = DDR2 (human) (UniProt Q16832)
# Sequence of DDR2 (human) (Q16832 whole entry, looked up): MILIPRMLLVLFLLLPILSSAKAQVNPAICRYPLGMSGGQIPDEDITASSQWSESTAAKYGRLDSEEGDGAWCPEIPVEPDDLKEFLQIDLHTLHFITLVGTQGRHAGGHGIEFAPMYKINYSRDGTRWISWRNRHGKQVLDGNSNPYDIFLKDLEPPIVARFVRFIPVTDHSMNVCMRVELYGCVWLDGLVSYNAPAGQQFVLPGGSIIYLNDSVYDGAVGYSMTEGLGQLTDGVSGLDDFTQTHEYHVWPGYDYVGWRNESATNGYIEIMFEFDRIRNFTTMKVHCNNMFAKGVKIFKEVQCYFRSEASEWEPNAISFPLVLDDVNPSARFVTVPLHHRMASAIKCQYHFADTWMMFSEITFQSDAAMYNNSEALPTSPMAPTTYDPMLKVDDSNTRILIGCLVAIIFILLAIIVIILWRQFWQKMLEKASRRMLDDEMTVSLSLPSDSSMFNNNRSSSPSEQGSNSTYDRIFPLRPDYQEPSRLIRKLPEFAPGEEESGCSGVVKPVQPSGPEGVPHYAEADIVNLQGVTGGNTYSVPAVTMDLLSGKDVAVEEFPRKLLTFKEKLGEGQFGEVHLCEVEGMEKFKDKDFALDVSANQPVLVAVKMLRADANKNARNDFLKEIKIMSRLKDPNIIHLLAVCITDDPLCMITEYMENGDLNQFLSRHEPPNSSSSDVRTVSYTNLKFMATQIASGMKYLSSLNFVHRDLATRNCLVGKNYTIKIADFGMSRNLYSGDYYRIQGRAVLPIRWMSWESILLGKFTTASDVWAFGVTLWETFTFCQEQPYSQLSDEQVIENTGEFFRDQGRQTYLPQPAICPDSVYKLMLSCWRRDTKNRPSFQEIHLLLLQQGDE
# EPHA7 (human) = EPHA7 (human) (UniProt Q15375)
# [2] = system: FGFR3 (human), P22607 [G697C]
# Sequence of FGFR3 (human), P22607 [G697C] (P22607 whole entry G697C, looked up): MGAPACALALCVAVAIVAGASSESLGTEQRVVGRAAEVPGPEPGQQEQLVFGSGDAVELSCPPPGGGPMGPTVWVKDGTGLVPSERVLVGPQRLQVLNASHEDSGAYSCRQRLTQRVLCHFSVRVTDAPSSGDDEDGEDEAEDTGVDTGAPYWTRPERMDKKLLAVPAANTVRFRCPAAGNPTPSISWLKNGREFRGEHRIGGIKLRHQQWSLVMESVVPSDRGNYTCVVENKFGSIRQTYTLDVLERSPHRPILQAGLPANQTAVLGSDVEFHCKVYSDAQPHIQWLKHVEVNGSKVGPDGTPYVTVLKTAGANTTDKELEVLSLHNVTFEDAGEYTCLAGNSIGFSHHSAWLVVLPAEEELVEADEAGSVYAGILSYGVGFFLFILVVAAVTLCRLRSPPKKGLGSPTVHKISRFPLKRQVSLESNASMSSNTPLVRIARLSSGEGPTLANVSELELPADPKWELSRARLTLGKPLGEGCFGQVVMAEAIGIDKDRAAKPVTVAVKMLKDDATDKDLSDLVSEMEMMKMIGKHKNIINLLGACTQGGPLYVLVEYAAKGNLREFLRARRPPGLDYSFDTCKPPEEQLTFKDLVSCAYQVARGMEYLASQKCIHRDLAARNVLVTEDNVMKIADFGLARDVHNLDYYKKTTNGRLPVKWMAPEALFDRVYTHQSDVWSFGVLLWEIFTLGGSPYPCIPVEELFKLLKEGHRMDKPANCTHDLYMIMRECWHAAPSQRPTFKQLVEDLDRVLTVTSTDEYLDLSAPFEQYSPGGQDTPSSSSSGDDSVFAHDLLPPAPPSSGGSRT
# FGFR4 (human) = FGFR4 (human) (UniProt P22455)
# FLT1 (human) = FLT1 (human) (UniProt P17948)
# IRAK3 (human) = IRAK3 (human) (UniProt Q9Y616)
# MAP2K4 (human) = MAP2K4 (human) (UniProt P45985)
# Sequence of MAP2K4 (human) (P45985 whole entry, looked up): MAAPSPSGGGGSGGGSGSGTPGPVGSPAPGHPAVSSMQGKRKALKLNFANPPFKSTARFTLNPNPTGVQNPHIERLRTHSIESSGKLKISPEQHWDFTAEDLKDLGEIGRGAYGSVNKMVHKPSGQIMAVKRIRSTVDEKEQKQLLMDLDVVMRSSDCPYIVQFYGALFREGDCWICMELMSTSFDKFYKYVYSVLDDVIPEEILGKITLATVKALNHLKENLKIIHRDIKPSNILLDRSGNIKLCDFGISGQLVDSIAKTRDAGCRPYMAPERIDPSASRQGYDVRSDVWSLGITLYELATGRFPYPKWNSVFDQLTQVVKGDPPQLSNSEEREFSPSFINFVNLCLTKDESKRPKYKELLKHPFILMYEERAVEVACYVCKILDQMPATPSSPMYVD
# MAP3K10 (human) = MAP3K10 (human) (UniProt Q02779)
# MAPK12 (human) = MAPK12 (human) (UniProt P53778)
# MAPK7 (human) = MAPK7 (human) (UniProt Q13164)
# MARK1 (human) = MARK1 (human) (UniProt Q9P0L2)
# Sequence of MARK1 (human) (Q9P0L2 whole entry, looked up): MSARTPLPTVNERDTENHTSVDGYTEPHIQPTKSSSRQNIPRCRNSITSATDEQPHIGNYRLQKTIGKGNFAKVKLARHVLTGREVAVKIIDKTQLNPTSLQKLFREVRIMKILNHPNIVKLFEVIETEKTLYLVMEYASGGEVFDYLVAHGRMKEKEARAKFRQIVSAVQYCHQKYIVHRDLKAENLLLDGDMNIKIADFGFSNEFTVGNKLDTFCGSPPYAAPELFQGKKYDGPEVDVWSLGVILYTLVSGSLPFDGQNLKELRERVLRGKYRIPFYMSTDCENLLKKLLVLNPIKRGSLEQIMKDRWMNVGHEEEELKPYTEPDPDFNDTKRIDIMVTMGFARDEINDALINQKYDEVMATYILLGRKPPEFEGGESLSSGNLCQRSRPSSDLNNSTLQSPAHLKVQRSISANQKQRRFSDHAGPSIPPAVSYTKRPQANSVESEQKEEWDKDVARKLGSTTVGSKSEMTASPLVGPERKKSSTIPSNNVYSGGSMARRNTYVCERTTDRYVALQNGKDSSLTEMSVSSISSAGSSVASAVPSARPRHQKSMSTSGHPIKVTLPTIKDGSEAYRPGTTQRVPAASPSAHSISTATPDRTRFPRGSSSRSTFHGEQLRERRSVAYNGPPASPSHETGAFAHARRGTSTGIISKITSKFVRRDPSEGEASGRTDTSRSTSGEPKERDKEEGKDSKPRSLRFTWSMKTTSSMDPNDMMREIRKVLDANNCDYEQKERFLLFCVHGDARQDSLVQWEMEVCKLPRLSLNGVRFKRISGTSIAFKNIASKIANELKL
# MLTK (human) = MLTK (human) (UniProt Q9NYL2)
# NEK9 (human) = NEK9 (human) (UniProt Q8TD19)
# PAK6 (human) = PAK6 (human) (UniProt Q9NQU5)
# PHKG2 (human) = PHKG2 (human) (UniProt P15735)
# PIK3C2B (human) = PIK3C2B (human) (UniProt O00750)
# PIK3CD (human) = PIK3CD (human) (UniProt O00329)
# PLK3 (human) = PLK3 (human) (UniProt Q9H4B4)
# RIOK2 (human) = RIOK2 (human) (UniProt Q9BVS4)
# RIPK2 (human) = RIPK2 (human) (UniProt O43353)
# RPS6KA4 KD1 (human) = RPS6KA4 KD1 (human) (UniProt O75676)
# SIK1 (human) = SIK1 (human) (UniProt P57059)
# STK3 (human) = STK3 (human) (UniProt Q13188)
# TIE1 (human) = TIE1 (human) (UniProt P35590)
# TNK2 (human) = TNK2 (human) (UniProt Q07912)
# Sequence of TNK2 (human) (Q07912 whole entry, looked up): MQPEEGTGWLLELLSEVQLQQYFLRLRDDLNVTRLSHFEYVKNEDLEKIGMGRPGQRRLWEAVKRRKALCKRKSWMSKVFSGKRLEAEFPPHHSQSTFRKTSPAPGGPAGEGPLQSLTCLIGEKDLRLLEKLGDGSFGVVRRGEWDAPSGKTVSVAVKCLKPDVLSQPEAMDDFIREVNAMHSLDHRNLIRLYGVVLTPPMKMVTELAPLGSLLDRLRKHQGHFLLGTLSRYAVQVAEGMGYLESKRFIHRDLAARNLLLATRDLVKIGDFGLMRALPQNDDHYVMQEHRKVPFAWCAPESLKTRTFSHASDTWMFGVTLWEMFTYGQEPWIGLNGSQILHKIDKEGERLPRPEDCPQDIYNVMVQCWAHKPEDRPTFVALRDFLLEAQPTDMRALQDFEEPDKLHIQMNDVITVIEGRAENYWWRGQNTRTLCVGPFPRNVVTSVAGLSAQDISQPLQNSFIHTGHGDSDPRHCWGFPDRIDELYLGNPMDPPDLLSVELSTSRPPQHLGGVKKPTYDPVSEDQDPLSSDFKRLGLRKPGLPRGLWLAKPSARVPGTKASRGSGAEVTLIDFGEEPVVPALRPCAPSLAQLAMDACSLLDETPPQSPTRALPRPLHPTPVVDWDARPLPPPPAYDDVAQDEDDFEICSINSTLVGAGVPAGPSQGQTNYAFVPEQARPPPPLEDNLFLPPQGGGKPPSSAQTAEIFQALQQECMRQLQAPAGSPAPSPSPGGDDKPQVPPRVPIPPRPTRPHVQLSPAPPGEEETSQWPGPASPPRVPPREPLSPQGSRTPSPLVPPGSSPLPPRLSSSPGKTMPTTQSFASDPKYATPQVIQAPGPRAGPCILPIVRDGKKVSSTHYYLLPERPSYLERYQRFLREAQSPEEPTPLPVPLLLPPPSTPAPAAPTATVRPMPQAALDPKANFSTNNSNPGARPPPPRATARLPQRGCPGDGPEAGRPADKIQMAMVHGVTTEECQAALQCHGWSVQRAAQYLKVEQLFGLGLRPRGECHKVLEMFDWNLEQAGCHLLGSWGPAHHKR
# Sequence of BMPR2 (human) (Q13873 whole entry, looked up): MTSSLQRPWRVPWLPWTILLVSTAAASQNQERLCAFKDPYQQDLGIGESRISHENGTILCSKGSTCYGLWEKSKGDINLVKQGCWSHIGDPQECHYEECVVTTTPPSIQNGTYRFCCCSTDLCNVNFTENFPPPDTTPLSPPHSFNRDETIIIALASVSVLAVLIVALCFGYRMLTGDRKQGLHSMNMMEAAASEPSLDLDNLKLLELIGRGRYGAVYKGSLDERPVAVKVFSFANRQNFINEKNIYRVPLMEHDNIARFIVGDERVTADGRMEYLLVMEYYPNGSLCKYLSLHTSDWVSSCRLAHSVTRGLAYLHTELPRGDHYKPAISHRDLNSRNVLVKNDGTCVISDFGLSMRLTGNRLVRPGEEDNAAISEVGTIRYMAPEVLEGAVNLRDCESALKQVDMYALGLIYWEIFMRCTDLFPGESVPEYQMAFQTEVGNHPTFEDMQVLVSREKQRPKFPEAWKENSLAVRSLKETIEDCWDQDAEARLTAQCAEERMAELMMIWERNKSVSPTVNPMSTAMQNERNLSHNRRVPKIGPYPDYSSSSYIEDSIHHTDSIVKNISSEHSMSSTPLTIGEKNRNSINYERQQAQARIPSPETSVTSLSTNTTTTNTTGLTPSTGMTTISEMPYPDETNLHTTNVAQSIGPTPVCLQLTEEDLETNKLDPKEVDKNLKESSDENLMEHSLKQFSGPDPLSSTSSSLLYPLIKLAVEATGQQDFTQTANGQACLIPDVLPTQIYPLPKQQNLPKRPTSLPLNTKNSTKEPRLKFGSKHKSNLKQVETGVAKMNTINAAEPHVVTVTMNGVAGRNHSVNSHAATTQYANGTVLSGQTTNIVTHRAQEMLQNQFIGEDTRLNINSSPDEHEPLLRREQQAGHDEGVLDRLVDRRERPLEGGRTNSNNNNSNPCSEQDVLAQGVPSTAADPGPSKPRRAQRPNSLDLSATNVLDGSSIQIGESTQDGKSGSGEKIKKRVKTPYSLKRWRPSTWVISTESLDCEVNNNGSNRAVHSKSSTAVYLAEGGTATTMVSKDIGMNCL
SMILES,"kinase still bound, per cent of control (ACVR1B (human)) [%]","kinase still bound, per cent of control (BMPR2 (human)) [%]","kinase still bound, per cent of control [1] [%]","kinase still bound, per cent of control (BRSK1 (human)) [%]","kinase still bound, per cent of control (CAMKK1 (human)) [%]","kinase still bound, per cent of control (CAMKK2 (human)) [%]","kinase still bound, per cent of control (DAPK3 (human)) [%]","kinase still bound, per cent of control (DDR2 (human)) [%]","kinase still bound, per cent of control (EPHA7 (human)) [%]","kinase still bound, per cent of control [2] [%]","kinase still bound, per cent of control (FGFR4 (human)) [%]","kinase still bound, per cent of control (FLT1 (human)) [%]","kinase still bound, per cent of control (IRAK3 (human)) [%]","kinase still bound, per cent of control (MAP2K4 (human)) [%]","kinase still bound, per cent of control (MAP3K10 (human)) [%]","kinase still bound, per cent of control (MAPK12 (human)) [%]","kinase still bound, per cent of control (MAPK7 (human)) [%]","kinase still bound, per cent of control (MARK1 (human)) [%]","kinase still bound, per cent of control (MLTK (human)) [%]","kinase still bound, per cent of control (NEK9 (human)) [%]",further results
COc1cc(N2CCC(C(N)=O)CC2)ccc1Nc1nc(N)c(Cl)c(Nc2ccccc2S(=O)(=O)C(C)C)n1,100,100,100,100,18,6.5,100,100,15,100,100,100,29,22,100,100,100,100,100,100,"kinase still bound, per cent of control (PAK6 (human)): 100%; kinase still bound, per cent of control (PHKG2 (human)): 13%; kinase still bound, per cent of control (PIK3C2B (human)): 100%; kinase still bound, per cent of control (PIK3CD (human)): 100%; kinase still bound, per cent of control (PLK3 (human)): 100%; kinase still bound, per cent of control (RIOK2 (human)): 100%; kinase still bound, per cent of control (RIPK2 (human)): 100%; kinase still bound, per cent of control (RPS6KA4 KD1 (human)): 100%; kinase still bound, per cent of control (SIK1 (human)): 100%; kinase still bound, per cent of control (STK3 (human)): 100%; kinase still bound, per cent of control (TIE1 (human)): 29%; kinase still bound, per cent of control (TNK2 (human)): 0.2%"
COc1ccc(N(C(=O)Oc2cc(C(=O)Nc3cccc(C(F)(F)F)c3)ccc2C)c2ccnc(Nc3ccc(N4CCN(C)CC4)cc3)n2)c(OC)c1,100,1.1,9.7,100,100,100,100,100,0.6,8.6,0.4,1.2,100,100,100,100,15,100,2.1,100,"kinase still bound, per cent of control (PAK6 (human)): 100%; kinase still bound, per cent of control (PHKG2 (human)): 100%; kinase still bound, per cent of control (PLK3 (human)): 100%; kinase still bound, per cent of control (RIPK2 (human)): 2.3%; kinase still bound, per cent of control (RPS6KA4 KD1 (human)): 100%; kinase still bound, per cent of control (SIK1 (human)): 0.1%; kinase still bound, per cent of control (STK3 (human)): 100%; kinase still bound, per cent of control (TIE1 (human)): 3.8%; kinase still bound, per cent of control (TNK2 (human)): 4%"
COc1cc(C)c(Sc2cnc(NC(=O)c3ccc(CNC(C)C(C)C)cc3)s2)cc1C(=O)N1CCN(C(C)=O)CC1 (stereo not drawn),100,100,100,100,100,24,100,100,100,100,100,100,100,100,100,100,100,100,100,100,"kinase still bound, per cent of control (PAK6 (human)): 100%; kinase still bound, per cent of control (PHKG2 (human)): 11%; kinase still bound, per cent of control (PIK3C2B (human)): 100%; kinase still bound, per cent of control (PIK3CD (human)): 100%; kinase still bound, per cent of control (PLK3 (human)): 100%; kinase still bound, per cent of control (RIOK2 (human)): 100%; kinase still bound, per cent of control (RIPK2 (human)): 100%; kinase still bound, per cent of control (RPS6KA4 KD1 (human)): 100%; kinase still bound, per cent of control (SIK1 (human)): 100%; kinase still bound, per cent of control (STK3 (human)): 100%; kinase still bound, per cent of control (TIE1 (human)): 11%; kinase still bound, per cent of control (TNK2 (human)): 100%"
